Consider 2 compounds from patent EP1073451B1, “D[…] TREATING ISCHEMIA” (University of Kentucky Research Foundation, priority 1998, dated 2002).

For the series, the system named is focal middle cerebral arterial occlusion (MCAO) ischemia. To be noted: for infarct volume reduced compared to control animals: after 24 h of reperfusion; for infarct volume reduced compared to control animals / MABP, pO2, pCO2, pH or rectal temperature versus control animals: 4 mg/kg i.p. x4 prior to 1 h MCAO; for neurological deficits: behavior ranking 0 (normal) to 3 (severe), 4 mg/kg i.p. at 6.5 h, 4.5 h, 2.5 h and 0.5 h prior to ischemic injury, 1 h MCAO, mean ± SEM; for neurological deficits / infarct volume: n=8; for infarct volume: 4 mg/kg; for MABP, pO2, pCO2, pH or rectal temperature versus control animals: post ischemia.

As to `CC(C)C[C@@H](NC(=O)[C@H](Cc1ccccc1)NC(=O)CNC(=O)[C@@H](C)NC(=O)[C@@H](N)Cc1ccc(O)cc1)C(=O)O` [DADLE, Tyr-D-Ala-Gly-Phe-D-Leu-enkephalin], the “infarct volume reduced compared to control animals” value was determined as 12%; the neurological deficits is 1.73 ± 0.20; the infarct volume is 67 ± 9 mm^2; the “MABP, pO2, pCO2, pH or rectal temperature versus control animals” value was “no significant differences”.

For “Tyr-Ala-Phe-Asp-Val-Val-Gly-NH2 [deltorphin]”, the “infarct volume reduced compared to control animals” value came to 42%; the neurological deficits was 0.44 ± 0.11; the infarct volume turned out to be 45 ± 10 mm^2; the “MABP, pO2, pCO2, pH or rectal temperature versus control animals” value is given as “no significant differences”.
